Experimental data published in article PMC7900207, “Checkpoint inhibition through small molecule-induced internalization of programmed death-ligand 1” (Nature Communications, 2021).

Columns and labels:
PD-1/PD-L1 = test system: T1, PD-1/PD-L1; assay: cells; design: species or system Jurkat PD-1 effector cells with PD-L1 aAPC/CHO-K1; PD-1/PD-L1 blockade bioassay, NFAT luciferase reporter, Bio-Glo luminescence; settings: Homo sapiens, Jurkat; NFAT reporter bioassay
T1 construct: PD-L1 on aAPC/CHO-K1 cells, PD-1 on Jurkat effector cells (Promega)
Protocol: BioAssay is designed to measure luciferase activity showing the EC50 level of PD-1/PD-L1 blocking by small molecules targeting PD-L1 protein in the cell. PD-1 effector cells were incubated with PD-L1 aAPC/CHO-K1 cells in the absence or presence of small molecules or αPD-L1 blocking antibodies, as indicated titration according to the manufacturer’s instruction (Promega). Bio-Glo™ Reagent was added and luminescence quantified. Data were analyzed using GraphPad Prism. Small molecules were first screened in a cell-free in vitro homogeneous time-resolved fluorescence (HTRF) assay, utilizing αPD-L1 (MIH1) and αPD-1 (nivolumab) antibodies as positive controls. […] It has been reported that a small molecule can stabilize a dimer form of PD-L1 through interactions with antiparallel residues in the hydrophobic dimer interface. To test if compound A can induce intermolecular PD-L1 interactions in solution, we developed a homodimer HTRF assay. […] In this assay, preventing the PD-1/PD-L1 interaction results in a release of constitutive NFAT reporter suppression and increases luciferase activity (relative luminescence units). […] We determined if compound A cellular bioassay potency could translate into immunomodulatory effects on primary human immune cells. […]

cell surface PD-L1 = target: T2, cell surface PD-L1 (Homo sapiens, UniProt Q9NZQ7); assay: cell-based
T2 construct: gene CD274

[1] = target: T3, programmed death-ligand 1 (PD-L1, hPD-L1) (Homo sapiens, UniProt Q9NZQ7); assay: co-crystal structure at […] Å (PD-L1 homodimer); IC50 from PD-1/PD-L1 HTRF assay; PD-L1/PD-L1 dimerization HTRF; format: binding
T3 construct: gene CD274; human PD-L1(18–134) with 6xHis carboxyl-terminal tag (crystal structure); recombinant Human PD-L1-His (HTRF)
T3 sequence (Q9NZQ7 18-134): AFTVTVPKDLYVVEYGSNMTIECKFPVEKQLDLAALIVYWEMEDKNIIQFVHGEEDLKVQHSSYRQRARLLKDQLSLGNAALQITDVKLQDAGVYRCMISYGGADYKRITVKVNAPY

T2 sequence (Q9NZQ7 whole entry): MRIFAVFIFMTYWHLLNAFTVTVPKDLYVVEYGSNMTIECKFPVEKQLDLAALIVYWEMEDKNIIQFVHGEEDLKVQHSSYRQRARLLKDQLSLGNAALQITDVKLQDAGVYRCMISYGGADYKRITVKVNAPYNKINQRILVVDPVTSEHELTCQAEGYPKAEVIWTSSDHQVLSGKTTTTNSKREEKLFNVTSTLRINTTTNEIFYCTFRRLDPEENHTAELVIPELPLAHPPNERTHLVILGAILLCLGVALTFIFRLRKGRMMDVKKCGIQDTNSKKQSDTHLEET

Row | EC50 (PD-1/PD-L1) | IC50 (cell surface PD-L1) | Compound | IC50 [1]
1 | 17.9 nM | 2.1 nM | Cc1c(NC(=O)c2ccc(CNCCO)cn2)cccc1-c1cccc(NC(=O)c2ccc(CNCCO)cn2)c1C [ARB-272572] | –
2 | – | – | Cc1c(NC(=O)c2ccc(CNCCO)cn2)cccc1-c1cccc(NC(=O)c2ccc(CNCCO)cn2)c1C [compound A, ARB-272572] | 0.4 nM
